The values below come from US11485728B2, “Small molecules for the treatment of autoimmune diseases and cancer” (Athos Therapeutics, Inc., priority 2020, dated 2022).

One data set can be described thus: PAMPA permeability. To be noted: for Papp at 5 h, 20 μM: PAMPA, 5 hours at RT. For orientation: In PAMPA a lipid-coated filter parts donor from acceptor wells.
The next data set has as its target T1, CYP2C9 (Homo sapiens, UniProt P11712).
T1 construct: from tissue; host or cells: pooled human liver microsomes
As to the kind of experiment: CYP-direct inhibition, CYP2C9. The data set is classed as in vitro ADME. As for the experimental part: (§1) Many drugs inhibit cytochrome P450 enzymes to cause clinically significant changes in the pharmacokinetics of other drugs. In vitro cytochrome P450 inhibition, can provide crucial information in evaluating potential clinical drug-drug interactions and is useful for focusing in vivo tests to areas of concern. The cytochrome P450 inhibition assay was developed by preparing a working cocktail solution consisting of six probe substrates 10 μM ethoxy-resorufin (CYP1A2), 100 μM rosiglitazone (CYP2C8), 50 μM diclofenac (CYP2C9), 300 μM S-mephenytoin (CYP2C19), 50 μM dextromethorphan (CYP2D6), and 20 μM midazolam (CYP3A4). A mixture solution consists of 140 uL of 0.286 mg/mL of pooled human liver microsome working solution and 20 uL working solutions of test articles, standard control inhibitors, or positive control placebo and 20 uL of substrate cocktail mixture working solution was prepared. The mixture solution was pre-warm in a gentle shaking bath at 37±2° C. for 5 minutes. The enzymatic reaction started by adding 20 uL of NRS working solution to the mixture solution and incubated for 10 minutes at 37±2° C. To stop the reaction, an addition of 400 μL cold stop solution (acetonitrile containing 50 ng/mL Tolbutamide as an internal standard (I.Std.) was added to the mixture solution. The final concentration of test article, inhibitors, substrates, and cofactors are noted in Table 0.1 below. Two individual samples were prepared for each test compound. The extracted samples were vortexed and then centrifuged at 4500 rpm for 7 minutes using Eppendorf Centrifuge 5910R. 200 uL of supernatant was diluting with 200 uL of 50% Methanol into 96-DW plate for LC/MS/MS analysis
(§2) Concentration-response plots are used to determine the effects of an inhibitor on an enzymatic reaction. A typical concentration-response plot provides fractional activity (Y axis) is plotted as a function of log inhibitor concentration (X axis). The data are fitted using a standard Sigmoidal dose-response equation which is also called a […] logistic equation. The concentration of compound that results in 50% inhibition of maximal activity is termed as the IC50 (inhibitor concentration yielding 50% inhibition). IC50 value is calculated using Prism GraphPad software, version 9. […].
(§3) Cytochrome P450 inhibition of a drug is a key factor in determining pharmacokinetic drug-drug interactions. The objective of this study was to evaluate the inhibition potential of G9a inhibitors on six (6) major human cytochrome P450 enzymes, including CYP1A2, CYP2C8, CYP2C9, CYP2C19, CYP2D6, and CYP3A4. Inhibition was determined by using a substrate cocktail and analyzing the rate of specific metabolites formation. The cytochrome P450 inhibition assay was developed using a cocktail consisting of six (6) probe substrates ethoxy-resorufin (CYP1A2), rosiglitazone (CYP2C8), diclofenac (CYP2C9), S-mephenytoin (CYP2C19), dextromethorphan (CYP2D6), and midazolam (CYP3A4). The cocktail was incubated in human liver microsome with NADPH regenerating system (NRS) in a shaking bath at 37±2° C. The formation of specific metabolites was monitored by LC/MS/MS. Test compound was added to the cocktail-liver microsome mixture at varying concentrations and its effect on cytochrome P450 activity was determined by analyzing the rate of specific metabolite formation. The percent inhibition was calculated and plotted with reference to the concentration, and the IC50 value for inhibition was derived by fitting the data with a using log(inhibitor) vs. normalized response with variable slope least squares fit by Graphpad Prism® software. […].

The nature of data set [1]: In-vitro half-life in rat liver microsomes. In kind it is in vitro ADME. To be noted: Rat liver microsomes 0.5 mg/mL; 1 μg/mL drug; NRS; read-out: Metabolic Half-life. As for the experimental part:
(§4) In each of the species (human, rat, mouse) of liver matrix to be tested, a working concentration of 2 μg/mL was prepared of each test article from the 0.5 mg/mL DMSO stock solution by adding 3 μL of 0.5 mg/mL test article stock solution to 747 μL of the 1 mg/mL liver matrix. Incubation was performed at 37±2° C. with gentle, continuous mixing in shaking water bath in 2.0 mL-well capacity 96-Deepwell plates (96-DWP). Samples were retrieved in duplicate at the following time points: 0, 5, 10, 15, 30 and 60 minutes. The final mixture contained 1 μg/mL of drug and 0.5 mg/mL of liver matrix. First, 50 μL of test articles in liver matrix was added to the 96-DWP and pre-warmed the mixture in the 96-DWP for 2 minutes in the 37° C. water bath. The enzymatic reaction was started by the addition of 50 μL of the corresponding 2× NADPH regenerating system (NRS) cofactor solution to all sample wells and stopped by the addition of 300 μL of stop solution (acetonitrile containing 10 ng/mL Tolbutamide as an internal standard (I.Std.). The samples were agitated for 10 minutes and then centrifuged for 20 minutes at 4500 rpm. 25 μL of supernatant was diluted with 475 μL acetonitrile containing I. Std. into a new 96-DWPs for LC-MS/MS analysis.
(§5) Half-life calculations were generated and calculated by Graphpad Prism® software. The half-life of test compound was calculated based on the first-order reaction kinetics. The data was transformed to linear regression (y=log(y) where “y” axis represents the % compound remaining at any given time with respect to time 0 minutes; “x” axis represents time in minutes) in order to calculate the half-life.
(§6) A comparison of metabolic stability in time-course incubation experiments in varying species of liver can provide information of pharmacokinetic properties of drugs attributable to species-related differences in hepatic metabolism. The results of these experiments often assist in further applications such as assessing in vitro metabolite profiling and choosing relevant species for toxicology studies based on similarities relative to the metabolic stability to the human profile. For these experiments, the test compound was tested in parallel with a positive control, Dasatinab, in an enzymatic reaction solution of each species (human and rat) of liver microsomes containing a NADPH regenerating system (NRS). The final mixture contained 1 μg/mL of drug and 0.5 mg/mL of liver matrix. Incubations were performed at 37±2° C. with gentle, continuous mixing in shaking water bath in 96-Deep well plates. The stability of the test compound is monitored using fast, specific and sensitive LC/MS/MS analysis.

The target of a further data set is T2, CYP2C19 (Homo sapiens, UniProt P33261).
T2 construct: from tissue; host or cells: pooled human liver microsomes
As to the kind of experiment: CYP-direct inhibition, CYP2C19. The data set is classed as in vitro ADME. As for the experimental part: as §1, §2, §3

For the next data set, the target named is T3, CYP3A4 (Homo sapiens, UniProt P08684).
T3 construct: from tissue; host or cells: pooled human liver microsomes
As to the kind of experiment: CYP-direct inhibition, CYP3A4. In kind it is in vitro ADME. The procedure:
as §1, §2, §3

The nature of data set [2]: In-vitro half-life in mouse liver microsomes. The data set is classed as in vitro ADME. To be noted: Mouse liver microsomes 0.5 mg/mL; 1 μg/mL drug; NRS; read-out: Metabolic Half-life. As for the experimental part: as §4, §5, §6
In general terms: Liver microsomes are a subcellular fraction often used to study metabolism.

Another data set has as its target T4, CYP2D6 (Homo sapiens, UniProt P10635).
T4 construct: from tissue; host or cells: pooled human liver microsomes
Kind of data set: CYP-direct inhibition, CYP2D6. The data set is classed as in vitro ADME. The procedure:
as §1, §2, §3

[3] abbreviates: PAMPA permeability Classification, 20 μM donor.
[4] abbreviates: Permeability, Pe, 20 μM donor in PBS/MeOH 90:10.
Setting [5] is: human liver microsome, substrate dextromethorphan, read-out: IC50 CYP-2D6.

Like-named read-outs stand apart in the source and are kept apart here.

T4 sequence (P10635 whole entry): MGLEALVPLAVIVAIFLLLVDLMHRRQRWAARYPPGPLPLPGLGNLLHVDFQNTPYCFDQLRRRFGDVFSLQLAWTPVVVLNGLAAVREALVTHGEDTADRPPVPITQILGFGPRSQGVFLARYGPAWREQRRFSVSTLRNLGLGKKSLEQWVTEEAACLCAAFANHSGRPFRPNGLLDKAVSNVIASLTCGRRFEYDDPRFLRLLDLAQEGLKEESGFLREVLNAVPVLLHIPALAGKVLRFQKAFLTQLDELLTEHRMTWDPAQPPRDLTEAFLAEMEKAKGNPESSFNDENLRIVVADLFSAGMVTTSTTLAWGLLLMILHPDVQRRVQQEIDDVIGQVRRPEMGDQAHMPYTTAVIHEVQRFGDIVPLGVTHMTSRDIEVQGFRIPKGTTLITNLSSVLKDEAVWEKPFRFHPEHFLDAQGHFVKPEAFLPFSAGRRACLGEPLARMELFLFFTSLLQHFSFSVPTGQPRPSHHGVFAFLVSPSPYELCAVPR
T3 sequence (P08684 whole entry): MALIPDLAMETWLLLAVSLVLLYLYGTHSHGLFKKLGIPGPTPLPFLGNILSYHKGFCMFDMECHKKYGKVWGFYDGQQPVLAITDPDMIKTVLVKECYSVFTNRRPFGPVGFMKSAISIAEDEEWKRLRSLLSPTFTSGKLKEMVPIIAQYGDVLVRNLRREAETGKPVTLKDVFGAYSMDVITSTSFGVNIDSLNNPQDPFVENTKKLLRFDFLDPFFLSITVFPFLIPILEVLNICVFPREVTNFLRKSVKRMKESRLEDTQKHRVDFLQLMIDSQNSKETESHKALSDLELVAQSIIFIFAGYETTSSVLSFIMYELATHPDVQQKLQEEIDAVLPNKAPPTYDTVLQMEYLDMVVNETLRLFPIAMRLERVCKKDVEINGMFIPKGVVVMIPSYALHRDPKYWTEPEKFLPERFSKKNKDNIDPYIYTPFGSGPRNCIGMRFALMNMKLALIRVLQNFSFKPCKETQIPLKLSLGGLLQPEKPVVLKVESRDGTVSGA
T1 sequence (P11712 whole entry): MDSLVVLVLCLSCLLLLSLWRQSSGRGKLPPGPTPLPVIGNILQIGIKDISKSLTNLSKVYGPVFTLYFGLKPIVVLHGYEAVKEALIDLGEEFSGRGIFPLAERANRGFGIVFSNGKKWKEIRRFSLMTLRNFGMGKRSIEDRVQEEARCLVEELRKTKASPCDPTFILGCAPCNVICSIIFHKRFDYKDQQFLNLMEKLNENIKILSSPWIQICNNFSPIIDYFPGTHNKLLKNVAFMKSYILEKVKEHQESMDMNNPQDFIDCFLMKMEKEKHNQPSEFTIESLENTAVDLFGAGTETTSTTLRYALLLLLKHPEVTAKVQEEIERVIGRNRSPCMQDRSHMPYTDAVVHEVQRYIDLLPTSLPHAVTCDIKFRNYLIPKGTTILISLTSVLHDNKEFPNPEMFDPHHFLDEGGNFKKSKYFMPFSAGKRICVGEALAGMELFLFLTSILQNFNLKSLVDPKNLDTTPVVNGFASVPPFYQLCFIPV
T2 sequence (P33261 whole entry): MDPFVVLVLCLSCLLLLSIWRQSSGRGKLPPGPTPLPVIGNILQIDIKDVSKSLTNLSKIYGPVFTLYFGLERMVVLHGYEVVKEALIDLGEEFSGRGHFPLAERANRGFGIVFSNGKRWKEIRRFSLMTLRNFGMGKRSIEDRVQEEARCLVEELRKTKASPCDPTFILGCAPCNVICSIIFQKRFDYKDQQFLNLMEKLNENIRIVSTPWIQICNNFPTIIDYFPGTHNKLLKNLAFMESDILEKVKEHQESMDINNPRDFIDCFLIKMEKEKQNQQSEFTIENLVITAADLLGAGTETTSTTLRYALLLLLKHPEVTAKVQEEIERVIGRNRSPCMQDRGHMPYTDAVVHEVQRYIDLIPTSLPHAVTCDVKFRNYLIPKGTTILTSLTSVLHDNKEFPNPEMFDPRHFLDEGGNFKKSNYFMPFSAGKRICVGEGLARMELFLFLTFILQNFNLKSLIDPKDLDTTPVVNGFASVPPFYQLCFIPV

Broadly, the Papp is the rate of passage across a membrane or cell layer, normalised by area and donor concentration. Low values mean poor permeation, high ones ready permeation. As a reminder, the IC50 is the concentration at which inhibition is half-maximal. A word on the half-life: it is the time in which the quantity being followed falls by half. Consider `COc1cc2c(NC3CCS(=O)(=O)CC3)nc(N3CCC(F)(F)CC3)nc2cc1OCCCN1CCCC1` [Compound 1, 4-((2-(4,4-difluoropiperidin-1-yl)-6-methoxy-7-(3-(pyrrolidin-1-yl)propoxy)quinazolin-4-yl)amino)tetrahydro-2H-thiopyran 1,1-dioxide], for which the Papp at 5 h, 20 μM in the data set “PAMPA permeability” (setting [3]) is under 0.055 ×10⁻⁶ cm/s; in “PAMPA permeability” (setting [4]), 0.0441 ×10⁻⁶ cm/s. For the same compound, the IC50 at CYP2C9 is over 100 µM; against CYP2C19, over 100 µM; at CYP3A4, over 100 µM; on CYP2D6 (setting [5]), 21.9 µM. Moreover, the half-life at 1 μg/mL in data set [1] and in data set [2] was over 1 h each time.
`COc1cc2c(NC3CCOCC3)nc(N3CCC(F)(F)CC3)nc2cc1OCCCN1CCCC1` [Compound 2, 2-(4,4-difluoropiperidin-1-yl)-6-methoxy-7-(3-(pyrrolidin-1-yl)propoxy)-N-(tetrahydro-2H-pyran-4-yl)quinazolin-4-amine]: in the data set “PAMPA permeability”, the “permeability / oral absorption potential (in words)” value is recorded as “very high permeability”. Further, the figures for the apparent permeability (Papp) at 5 h, 20 μM in “PAMPA permeability” (setting [3]) and in “PAMPA permeability” (setting [4]) were over 1.5 ×10⁻⁶ cm/s and 6.38 ×10⁻⁶ cm/s, respectively. In addition, the IC50 at CYP2C9 was over 100 µM; against CYP2C19, over 100 µM; on CYP3A4 it was over 100 µM; on CYP2D6 (setting [5]) it was 17.6 µM. Besides, the half-life at 1 μg/mL is 0.828 h in data set [1] and over 1 h in data set [2].
For `COCCN1CCC(Nc2nc(N3CCC(F)(F)CC3)nc3cc(OCCCN4CCCC4)c(OC)cc23)CC1` [Compound 3, 2-(4,4-difluoropiperidin-1-yl)-6-methoxy-N-(1-(2-methoxyethyl)piperidin-4-yl)-7-(3-(pyrrolidin-1-yl)propoxy)quinazolin-4-amine], the values for the Papp at 5 h, 20 μM in the data set “PAMPA permeability” (setting [3]) and in the data set “PAMPA permeability” (setting [4]) were 0.055 to 1.5 ×10⁻⁶ cm/s and 0.451 ×10⁻⁶ cm/s, respectively. In addition, the IC50 is over 100 µM against CYP2C9, over 100 µM at CYP2C19, over 100 µM at CYP3A4 and 9.55 µM at CYP2D6 (setting [5]). In addition, the half-life at 1 μg/mL in data set [1] and in data set [2] was over 1 h each time.
`COCCNc1nc(N2CCC(F)(F)CC2)nc2cc(OCCCN3CCCC3)c(OC)cc12` [Compound 4, 2-(4,4-difluoropiperidin-1-yl)-6-methoxy-N-(2-methoxyethyl)-7-(3-(pyrrolidin-1-yl)propoxy)quinazolin-4-amine]: the “permeability / oral absorption potential (in words)” value in “PAMPA permeability” is on record as “very high permeability”. Also, the apparent permeability coefficient (Papp) at 5 h, 20 μM is over 1.5 ×10⁻⁶ cm/s in the data set “PAMPA permeability” (setting [3]) and 1.77 ×10⁻⁶ cm/s in “PAMPA permeability” (setting [4]). Also, the IC50 at CYP2C9 is over 100 µM; at CYP2C19, 60.9 µM; against CYP3A4 it was over 100 µM; on CYP2D6 (setting [5]) it was 13.3 µM. Also, the half-life at 1 μg/mL in data set [1] and in data set [2] was over 1 h in each case.
With `COc1cc2c(NCC3CCN(C)CC3)nc(N3CCC(F)(F)CC3)nc2cc1OCCCN1CCCC1` [Compound 5, 2-(4,4-difluoropiperidin-1-yl)-6-methoxy-N-((1-methylpiperidin-4-yl)methyl)-7-(3-(pyrrolidin-1-yl)propoxy)quinazolin-4-amine], the Papp at 5 h, 20 μM in “PAMPA permeability” (setting [3]) is under 0.055 ×10⁻⁶ cm/s; in “PAMPA permeability” (setting [4]), 0.00649 ×10⁻⁶ cm/s. Moreover, the 50% inhibitory concentration (IC50) at CYP2C9, against CYP2C19, against CYP3A4 and on CYP2D6 (setting [5]) was over 100 µM in each case. For the same compound, the half-life at 1 μg/mL in data set [1] and in data set [2] was over 1 h each time.
With `COc1cc2c(Nc3ccncc3)nc(N3CCC(F)(F)CC3)nc2cc1OCCCN1CCCC1` [Compound 7, 2-(4,4-difluoropiperidin-1-yl)-6-methoxy-N-(pyridin-4-yl)-7-(3-(pyrrolidin-1-yl)propoxy)quinazolin-4-amine], the apparent permeability coefficient (Papp) at 5 h, 20 μM was 0.055 to 1.5 ×10⁻⁶ cm/s in the data set “PAMPA permeability” (setting [3]) and 0.584 ×10⁻⁶ cm/s in “PAMPA permeability” (setting [4]). For the same compound, the IC50 against CYP2C9 was over 100 µM; against CYP2C19, 44.3 µM; against CYP3A4, over 100 µM; on CYP2D6 (setting [5]) it was 12 µM. In addition, the half-life at 1 μg/mL in data set [1] is 0.617 h; in data set [2], 0.727 h.
Consider `COc1cc2c(NC3CCNCC3)nc(N3CCC(F)(F)CC3)nc2cc1OCCCN1CCCC1` [Compound 8, 2-(4,4-difluoropiperidin-1-yl)-6-methoxy-N-(piperidin-4-yl)-7-(3-(pyrrolidin-1-yl)propoxy)quinazolin-4-amine], for which the apparent permeability (Papp) at 5 h, 20 μM is under 0.055 ×10⁻⁶ cm/s in “PAMPA permeability” (setting [3]) and 0.00173 ×10⁻⁶ cm/s in “PAMPA permeability” (setting [4]). Besides, the concentration for half-maximal inhibition (IC50) on CYP2C9, on CYP2C19, at CYP3A4 and at CYP2D6 (setting [5]) was over 100 µM each time. The half-life at 1 μg/mL in data set [1] and in data set [2] was over 1 h throughout.
Turning to `COc1cc2c(NC3CCN(C(C)C)CC3)nc(N3CCC(F)(F)CC3)nc2cc1OCCCN1CCCC1` [Compound 400, 2-(4,4-difluoropiperidin-1-yl)-N-(1-isopropylpiperidin-4-yl)-6-methoxy-7-(3-(pyrrolidin-1-yl)propoxy)quinazolin-4-amine, reference compound], the 50% inhibitory concentration (IC50) was over 100 µM at CYP2C9, over 100 µM against CYP2C19, over 100 µM at CYP3A4 and 28.8 µM against CYP2D6. Moreover, the half-life at 1 μg/mL in data set [1] and in data set [2] was over 1 h each time.
